The text below walks through data of US11377416B2, “Crystalline forms of hydroxynorketamine” (SMALL PHARMA LTD, priority 2017, dated 2022).

The nature of series [1]: TG/DTA thermal analysis of crystal forms. The format is physicochemical. The note with it: heated 10° C./min from 20° C. to 300° C. under nitrogen. The procedure:
Approximately 5 mg of material was weighed into an open aluminium pan and loaded into a simultaneous thermogravimetric/differential thermal analyser (TG/DTA) and held at room temperature. The sample was then heated at a rate of 10° C./min from 20° C. to 300° C. during which time the change in sample weight was recorded along with any differential thermal events (DTA). Nitrogen was used as the purge gas, at a flow rate of 300 cm^3/min.

The conditions of series [2]: comparison value for known crystal forms, conditions not given; cited from earlier work.
A short description of series [3]: pKa analysis, potentiometric (pH-metric) titration. The series is classed as physicochemical. The note with it: pH-metric triple titration, methanol-water co-solvent, pH 2.0-12.0, Yasuda-Shedlovsky extrapolation. The procedure: The sample pKa was determined using the potentiometric (pH-metric) technique following attempts to determine pKa via UV spectroscopic techniques.
UV-metric: The sample was initially titrated in a fast-UV triple titration between pH 2.0-12.0 at concentrations of 31-19 μM, under aqueous conditions. No evidence of any sample ionisation within the investigated pH range was inferred from the spectroscopic data obtained, meaning that any ionisable groups were remote from chromophores. Therefore, the sample was analysed using the pH-metric method.
pH-metric: The sample was subsequently titrated using the potentiometric technique to determine the non-UV active pKas. A triple titration was carried out under methanol-water co-solvent conditions from pH 2.0-12.0 at concentrations of 0.9-0.6 mM (the methanol mixing ratio varied from 53.0 to 33.3% w/w). No precipitation of the sample from solution was observed so the pKa was determined from the potentiometric data collected, by Yasuda-Shedlovsky extrapolation of the individual results obtained. pKa of 2R,6R-hydroxynorketamine was calculated as 6.51+/−0.02.

Regarding `NC1(c2ccccc2Cl)CCCC(O)C1=O.O=C(O)CC(O)(CC(=O)O)C(=O)O` (stereo not drawn) [2R,6R-Hydroxynorketamine Citrate], the “temperature above which the material degrades (TG/DTA)” value in series [1] is “above 157 °C”.
On the same count and under the same terms, under `NC1(c2ccccc2Cl)CCCC(O)C1=O.O=C(O)C=CC(=O)O.O=C(O)C=CC(=O)O` (stereo not drawn) [2R,6R-Hydroxynorketamine Difumarate, 2R,6R-hydroxynorketamine difumarate] stands “above 159 °C”; under `NC1(c2ccccc2Cl)CCCC(O)C1=O.O=C(O)CC(O)C(=O)O` [2R,6R-Hydroxynorketamine L-Malate, 2R,6R-hydroxynorketamine L-malate], “above 150 °C”.
On to `N[C@@]1(c2ccccc2Cl)CCC[C@@H](O)C1=O.O=C(O)C(O)C(O)C(=O)O` [2R,6R-Hydroxynorketamine L-Tartrate, 2R,6R-hydroxynorketamine L-tartrate], for which the “temperature above which the material degrades (TG/DTA)” value in series [1] is “above 157 °C”.
`N[C@@]1(c2ccccc2Cl)CCC[C@@H](O)C1=O.O=C1CC[C@@H](C(=O)O)N1` [2R,6R-hydroxynorketamine L-pyroglutamate]: the “temperature above which the material degrades (TG/DTA)” value in series [1] was “above 159 °C”.
Take `Cl.N[C@@]1(c2ccccc2Cl)CCC[C@@H](O)C1=O` [2R,6R-hydroxynorketamine hydrochloride]: the “aqueous solubility of known crystal forms” value in series [2] is reported as 25 mg/mL.
In the case of `N[C@@]1(c2ccccc2Cl)CCC[C@@H](O)C1=O` [2R,6R-hydroxynorketamine, 2R,6R-2-(2-Chlorophenyl)-2-(amino)-6-hydroxycyclohexanone], in series [3], the pKa is 6.51+/−0.02.
